# Reference: patent US9598365B2, “Method for synthesizing cycloalkanyl[b]indoles, cycloalkanyl[b]benzofurans, cycloalkanyl[b]benzothiophenes, compounds and methods of use” (Trustees of Dartmouth College, priority 2012, dated 2017)
# pEC50: −log10 of the molar value. Where “and” joins values, the source holds several entries; their conditions need not be identical. Equal values may be shown once.
# Tests used:
# HCT116 = assay: K-Ras Wnt synthetic lethal, HCT116 KrasSL; type: cell-based; details: Homo sapiens, HCT-116, read-out: HCT116 KrasSL % Inhibit
# Source text: (§1) Selected compounds of this invention were screened for K-Ras Wnt synthetic lethal, anti-angiogenic activity, Wnt pathway modulatory activity, insulin and GLP-1 secretion modulatory activity, GPR119 receptor agonist activity, mGlu2R antagonist activity, CGRP receptor antagonist activity, Apelin receptor agonist activity and hexokinase 2 inhibitory activity using the PD^2 and TD^2 Screening Panel (Eli Lilly & Company). See Lee, et al. (2011) J. Biomol. Screen. 16:588-602.
# RKO = assay: K-Ras Wnt synthetic lethal, RKO KrasSL; type: cell-based; details: Homo sapiens, average of three independent experiments, read-out: RKO KrasSL % Inhibit
# Source text: as §1
# Co1o320 = assay: K-Ras Wnt synthetic lethal, Co1o320 KrasSL; type: cell-based; details: read-out: Co1o320 KrasSL % Inhibit
# Source text: as §1
# SNU-C1 = assay: K-Ras Wnt synthetic lethal, SNU-C1 KrasSL; type: cell-based; details: Homo sapiens, read-out: SNU-C1 KrasSL % Inhibit
# Source text: as §1
# Angio Tube Area = assay: Anti-angiogenic activity, Angio Tube Area; type: cell-based; details: read-out: Angio Tube Area % Inhibit
# Source text: as §1
# Wnt Pathway = assay: Wnt pathway modulatory activity, Osteo bCat; type: cell-based
# Source text: as §1
# Insulin Secretion = assay: Insulin secretion, Secretion Hi Gluc; type: cell-based
# Source text: as §1
# hNCI-H716 [1] = assay: hNCI-H716 GLP-1 secretion; type: cell-based
# Source text: as §1
# (§2) In light of the above results, additional compounds (Table 7) were prepared and phenotypic assays were carried out using hNCI-H716 and mSTC-1 cell lines to monitor GLP-1 secretion (single point (SP) and concentration response curves (CRC)) (Table 8), as well as a secondary assay with pituitary cells (Table 9).
# hGPR119 = target: T1, hGPR119 (Homo sapiens, UniProt Q8TDV5); assay: GPR119 receptor agonist, hGPR119 agonism; type: cell-based; details: @ 10 μM
# T1 sequence (Q8TDV5 1-335): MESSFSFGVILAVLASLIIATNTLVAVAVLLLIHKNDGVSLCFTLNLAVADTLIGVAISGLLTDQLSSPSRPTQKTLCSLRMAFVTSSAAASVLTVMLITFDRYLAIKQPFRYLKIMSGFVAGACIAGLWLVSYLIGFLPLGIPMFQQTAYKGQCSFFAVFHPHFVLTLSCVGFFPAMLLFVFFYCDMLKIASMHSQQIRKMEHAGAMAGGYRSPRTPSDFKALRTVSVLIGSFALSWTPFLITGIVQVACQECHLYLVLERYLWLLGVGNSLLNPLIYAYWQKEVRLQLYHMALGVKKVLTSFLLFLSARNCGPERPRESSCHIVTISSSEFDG
# Source text: as §1
# hMGLUR2 = hMGLUR2 (Homo sapiens, UniProt Q14416); assay: mGlu2R antagonist, hMGLUR2; type: cell-based
# Chain of hMGLUR2 (Q14416 19-872): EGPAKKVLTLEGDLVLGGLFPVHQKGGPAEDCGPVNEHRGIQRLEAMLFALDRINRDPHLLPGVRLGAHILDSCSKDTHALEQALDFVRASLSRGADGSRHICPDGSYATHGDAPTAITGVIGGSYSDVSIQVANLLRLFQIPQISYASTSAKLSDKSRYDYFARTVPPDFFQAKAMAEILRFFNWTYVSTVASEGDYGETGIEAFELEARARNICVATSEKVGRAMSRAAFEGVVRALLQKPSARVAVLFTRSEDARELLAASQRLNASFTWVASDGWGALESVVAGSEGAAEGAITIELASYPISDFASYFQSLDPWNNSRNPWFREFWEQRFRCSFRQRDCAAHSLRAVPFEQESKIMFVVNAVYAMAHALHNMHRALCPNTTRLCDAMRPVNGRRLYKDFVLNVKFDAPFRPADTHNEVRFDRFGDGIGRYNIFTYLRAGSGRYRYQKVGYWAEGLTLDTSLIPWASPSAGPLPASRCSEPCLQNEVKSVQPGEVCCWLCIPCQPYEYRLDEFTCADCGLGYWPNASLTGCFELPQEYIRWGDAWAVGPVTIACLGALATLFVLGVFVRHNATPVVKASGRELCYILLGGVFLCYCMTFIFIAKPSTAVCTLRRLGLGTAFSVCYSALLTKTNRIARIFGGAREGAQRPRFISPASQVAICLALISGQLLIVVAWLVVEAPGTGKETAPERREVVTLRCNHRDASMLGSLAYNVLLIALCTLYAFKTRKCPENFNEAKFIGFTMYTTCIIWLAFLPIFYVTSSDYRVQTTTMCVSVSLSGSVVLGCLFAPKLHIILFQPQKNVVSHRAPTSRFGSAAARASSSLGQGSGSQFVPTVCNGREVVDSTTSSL
# Source text: as §1
# hCGRP1 = hCGRP1 (Homo sapiens, UniProt O60894+Q16602); assay: CGRP receptor antagonist, hCGRP1 antagonism; type: cell-based
# Chain of hCGRP1 (Q16602 23-461): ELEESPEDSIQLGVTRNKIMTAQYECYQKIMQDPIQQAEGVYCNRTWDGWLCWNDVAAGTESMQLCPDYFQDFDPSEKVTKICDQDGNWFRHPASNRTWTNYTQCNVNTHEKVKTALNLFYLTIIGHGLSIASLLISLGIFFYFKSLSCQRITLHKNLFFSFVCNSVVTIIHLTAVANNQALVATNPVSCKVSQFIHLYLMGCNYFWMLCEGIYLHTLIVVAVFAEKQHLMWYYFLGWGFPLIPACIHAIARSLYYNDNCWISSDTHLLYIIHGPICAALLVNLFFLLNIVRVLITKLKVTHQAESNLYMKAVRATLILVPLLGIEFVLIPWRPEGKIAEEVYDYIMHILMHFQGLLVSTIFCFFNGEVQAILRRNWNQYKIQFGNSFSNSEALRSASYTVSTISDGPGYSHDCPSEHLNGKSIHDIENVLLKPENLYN
# Chain of hCGRP1 (O60894 27-148 partner): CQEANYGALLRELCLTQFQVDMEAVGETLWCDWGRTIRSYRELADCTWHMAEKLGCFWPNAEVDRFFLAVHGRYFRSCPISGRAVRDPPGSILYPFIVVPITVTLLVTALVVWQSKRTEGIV
# Source text: as §1
# hApelin = target: T2, hApelin (Homo sapiens, UniProt P35414); assay: Apelin receptor agonist, hApelin agonism; type: cell-based; details: @ 30 μM
# T2 sequence (P35414 1-380): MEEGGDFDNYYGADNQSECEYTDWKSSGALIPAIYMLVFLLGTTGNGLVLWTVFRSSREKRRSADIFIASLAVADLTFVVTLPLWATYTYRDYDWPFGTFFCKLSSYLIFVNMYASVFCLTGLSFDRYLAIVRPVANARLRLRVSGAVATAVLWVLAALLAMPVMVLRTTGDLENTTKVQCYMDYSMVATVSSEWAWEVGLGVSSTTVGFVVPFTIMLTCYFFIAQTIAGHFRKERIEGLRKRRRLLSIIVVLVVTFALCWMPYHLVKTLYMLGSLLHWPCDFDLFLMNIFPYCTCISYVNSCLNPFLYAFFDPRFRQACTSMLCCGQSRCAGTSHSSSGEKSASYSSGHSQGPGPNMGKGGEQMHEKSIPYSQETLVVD
# Source text: as §1
# hHK2 = target: T3, hHK2 (Homo sapiens, UniProt P52789); assay: Hexokinase 2 inhibitor, hHK2 ADP-FP; type: biochemical
# T3 sequence (P52789 1-917): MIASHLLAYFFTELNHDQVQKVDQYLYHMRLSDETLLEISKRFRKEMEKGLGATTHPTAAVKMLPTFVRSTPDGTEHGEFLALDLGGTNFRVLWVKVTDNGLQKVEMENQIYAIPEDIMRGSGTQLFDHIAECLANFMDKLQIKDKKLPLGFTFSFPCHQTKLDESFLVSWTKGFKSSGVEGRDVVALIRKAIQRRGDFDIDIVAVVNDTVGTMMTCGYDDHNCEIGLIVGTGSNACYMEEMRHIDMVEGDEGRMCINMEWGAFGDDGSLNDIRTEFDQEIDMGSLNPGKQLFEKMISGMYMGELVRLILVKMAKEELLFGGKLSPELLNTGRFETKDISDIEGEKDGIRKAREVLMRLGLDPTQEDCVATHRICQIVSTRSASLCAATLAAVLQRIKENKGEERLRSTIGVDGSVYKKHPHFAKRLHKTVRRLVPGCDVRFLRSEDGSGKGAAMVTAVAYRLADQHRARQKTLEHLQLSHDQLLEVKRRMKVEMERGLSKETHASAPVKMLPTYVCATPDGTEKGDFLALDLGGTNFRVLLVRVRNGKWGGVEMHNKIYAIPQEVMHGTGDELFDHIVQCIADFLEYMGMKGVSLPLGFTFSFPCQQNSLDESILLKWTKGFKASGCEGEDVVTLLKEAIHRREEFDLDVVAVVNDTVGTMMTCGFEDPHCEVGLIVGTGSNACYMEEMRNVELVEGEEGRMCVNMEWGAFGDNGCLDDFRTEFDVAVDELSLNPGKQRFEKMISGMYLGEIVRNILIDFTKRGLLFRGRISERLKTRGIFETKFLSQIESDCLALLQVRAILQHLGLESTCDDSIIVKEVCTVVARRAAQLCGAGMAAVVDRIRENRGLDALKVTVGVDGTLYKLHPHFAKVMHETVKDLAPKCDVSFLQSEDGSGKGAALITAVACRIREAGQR
# Source text: as §1
# mSTC-1 = mSTC-1 GLP-1 secretion; type: cell-based; details: concentration response curve, read-out: Primary CRC (EC50, μM) mSTC
# Protocol: as §2
# Pituitary Cells = assay: Secondary assay, pituitary cells growth hormone secretion; type: cell-based; details: @ 3.3 μM
# Protocol: as §2
# hNCI-H716 [2] = assay: hNCI basal LDH secretion; type: cell-based; details: read-out: Primary CRC (EC50, μM) hNCI Basal
# Protocol: as §2
# [3] = Plasma compound exposure after oral dosing in mice; type: in vivo, Mice (male C57BL/6); details: oral 100 mg/kg, 30 minutes post-dose
# Protocol: (§3) Mice (male C57BL/6, 8-10 weeks of age) were fasted overnight by being placed in a clean cage without food. The next day, all mice were weighed and assigned to groups of similar body weights. Test compounds were formulated in 1% HEC, 0.25% TWEEN 80, 0.05% antifoam (vehicle control). Compounds 11ls and llu were orally dosed (100 mg/kg) and cardiac sticks were done on CO2 euthanized mice at 30 minutes post-dose. Blood (500+μL whole blood) from the cardiac stick was placed in chilled EDTA-plasma tubes with inhibitors, DPP4 inhibitor (5 μL/500 μL blood) and aprotinin (bovine lung, […]/500 μL blood), and stored on ice. Plasma was separated by centrifugation and aliquoted for compound exposure to total GIP and GLP-1 (X-36 amide). Plates for compound exposure were analyzed for absorption, distribution, metabolism, and excretion, while conventional kits were used for GLP-1 (x-36) amide (Mesoscale) and GIP (Millipore) analyses.
# GLP-1 (X-36 amide) = assay: Plasma GLP-1 response to oral compound in mice; type: in vivo, Mice (male C57BL/6); details: oral 100 mg/kg, plasma 30 minutes post-dose
# Protocol: as §3
# GIP = assay: Plasma GIP response to oral compound in mice; type: in vivo, Mice (male C57BL/6); details: oral 100 mg/kg, plasma 30 minutes post-dose
# Protocol: as §3
structure (smiles),measurement,setting,value
CC1(C)c2c([nH]c3ccc(Br)cc23)C2C=CC1C2 (stereo not drawn) [Compound 11t],inhibition at 0.2 µM,HCT116; @ 0.2 μM,5.3%
same,inhibition at 2 µM,HCT116; @ 2 μM,-11.5%
same,inhibition at 20 µM,HCT116; @ 20 μM,104%
same,inhibition at 0.2 µM,RKO; @ 0.2 μM,-5.8%
same,inhibition at 2 µM,RKO; @ 2 μM,17.6%
same,inhibition at 20 µM,RKO; @ 20 μM,102%
same,inhibition at 0.2 µM,Co1o320; @ 0.2 μM,-6.6%
same,inhibition at 2 µM,Co1o320; @ 2 μM,23.1%
same,inhibition at 20 µM,Co1o320; @ 20 μM,152%
same,inhibition at 0.2 µM,SNU-C1; @ 0.2 μM,-1%
same,inhibition at 2 µM,SNU-C1; @ 2 μM,-19.1%
same,inhibition at 20 µM,SNU-C1; @ 20 μM,107%
same,inhibition at 2 µM,Angio Tube Area; @ 2 μM,8%
same,inhibition at 10 µM,Angio Tube Area; @ 10 μM,38%
same,Osteo bCat % Stimulation,Wnt Pathway; @ 2 μM,1.8%
same,Osteo bCat % Stimulation,Wnt Pathway; @ 10 μM,5.5%
same,Secretion Hi Gluc % Stimulation,Insulin Secretion; @ 2 μM,0.1%
same,Secretion Hi Gluc % Stimulation,Insulin Secretion; @ 10 μM,19.1%
same,activation at 2 µM,"hNCI-H716 [1]; 2 μM, GLP-1 secretion, single point, read-out: Primary SP hNCI (% Stim.)",0%
same,activation at 20 µM,"hNCI-H716 [1]; 20 μM, GLP-1 secretion, single point, read-out: Primary SP hNCI (% Stim.)",35.2%
same,hNCI GLP-1 Secretion % Stimulation,hNCI-H716 [1]; @ 2 μM,0%
same,hNCI GLP-1 Secretion % Stimulation,hNCI-H716 [1]; @ 20 μM,35.2%
same,EC50,"hNCI-H716 [1]; GLP-1 secretion, concentration response curve, read-out: Primary CRC (EC50, μM) hNCI",29.1 µM and 17.6 µM and 16.4 µM
same,pEC50,"hNCI-H716 [1]; average of three independent experiments, read-out: hNCI GLP-1 Secretion EC50",4.54
same,pEC50,"hNCI-H716 [1]; secretion and/or production of GLP-1, read-out: EC50 values (Table 6)",4.54
same,hGPR119 agonism % Stimulation,hGPR119,−2.3%
same,inhibition at 50 µM,hMGLUR2,-19.7%
same,inhibition at 30 µM,hCGRP1,67.7%
same,hApelin agonism % Stimulation,hApelin,−52.8%
same,inhibition at 20 µM,hHK2,3.2%
same,EC50,mSTC-1,2.4 µM and 4.1 µM and 2.2 µM
same,"Pituitary Cells (Growth Hormone Secretion, % Stimulation)",Pituitary Cells,−12.6% and −7.1%
CC1(C)c2c([nH]c3ccc(I)cc23)C2C=CC1C2 (stereo not drawn) [Compound 11u],Primary SP hNCI (% Stim.),"hNCI-H716 [1]; 2 μM, GLP-1 secretion, single point",0%
same,Primary SP hNCI (% Stim.),"hNCI-H716 [1]; 20 μM, GLP-1 secretion, single point",57%
same,EC50,mSTC-1,2 µM and 3.2 µM
same,EC50,hNCI-H716 [2],35.8 µM
same,mean (±standard deviation) plasma levels,[3],201.6 ± 37.24 ng/mL
same,Avg. GLP-1 (pg/mL) ±SEM,GLP-1 (X-36 amide),7.66 ± 0.89 pg/mL
same,Avg. GIP (pg/mL) ±SEM,GIP,26.23 ± 10.35 pg/mL
